From patent US10959432B2, “Microbiocidal oxadiazole derivatives” (Syngenta Participations AG, priority 2016, dated 2021)
“And” between values parts separate entries of the source, which are not always exact repeats. Identical values can stand only once.

Experiments:
Uromyces viciae-fabae = test: Fungicidal activity against Uromyces viciae-fabae / field bean / leaf disc preventative (faba-bean rust); type: in vivo; conditions: foliar, 288 h, 100 ppm in the applied formulation, field bean leaf discs, preventative (inoculated two hours after application), assessed 12 days after application, read-out: disease control compared to untreated control leaf discs
Outline: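 Field bean leaf discs on water agar treated with 10 μl compound in acetone plus spreader, then spray-inoculated on the lower surface with Uromyces viciae-fabae spores 2 h later. Incubation at 22 °C, 18 h day, 70% RH; percent disease control versus untreated scored 12 days after application, compounds at 100 ppm.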

[1] = tested on: Puccinia recondita f. sp. tritici; test: Fungicidal activity against Puccinia recondita f. sp. tritici / wheat / leaf disc curative (brown rust); type: in vivo; conditions: foliar, 200 ppm in the applied formulation, wheat leaf segments cv. Kanzler, curative (applied 1 day after inoculation), assessed 6 to 8 days after application, read-out: disease control compared to untreated control leaf disks
Outline: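 Curative test: compound, diluted from DMSO stock into water, applied one day after spore inoculation of wheat (cv. Kanzler) leaf segments kept on agar in darkness at 19° C. and 75% RH. Climate-cabinet incubation (19° C., 75% RH, 12 h photoperiod); disease control relative to untreated read 6–8 days post-application.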

Phakopsora pachyrhizi = test: Fungicidal activity against Phakopsora pachyrhizi / soybean / leaf disc preventative (Asian soybean rust); type: in vivo; conditions: foliar, 200 ppm in the applied formulation, soybean leaf disks, preventative (inoculated one day after application), assessed 12 to 14 days after application, read-out: disease control compared to untreated control leaf disks
Outline: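 Preventative test: compound applied to soybean leaf discs a day before spore inoculation of the lower surface. Discs kept at 20° C and 75% rh, first 24-36 h in darkness, then under 12 h light/day; disease control relative to untreated discs rated 12 to 14 days post-application.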

[2] = tested on: Glomerella laqenarium (Colletotrichum lagenarium); test: Fungicidal activity against Glomerella lagenarium (Colletotrichum lagenarium) liquid culture / cucumber / preventative (anthracnose); type: cell-based; conditions: Colletotrichum orbiculare; 20 ppm in the applied formulation; liquid culture in PDB, 24° C., 3 to 4 days after application; read-out: disease control compared to untreated control (inhibition of growth measured photometrically)
Outline: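 Test compound, applied from DMSO solution, is combined with PDB containing conidia taken from cryogenic storage. After 3–4 days at 24 °C, growth is measured photometrically and antifungal activity expressed as percent relative to untreated control.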

[3] = tested on: Puccinia recondita f. sp. tritici; test: Fungicidal activity against Puccinia recondita f. sp. tritici / wheat / leaf disc preventative (brown rust); type: in vivo; conditions: foliar, 200 ppm in the applied formulation, wheat leaf segments cv. Kanzler, preventative (inoculated 1 day after application), assessed 7 to 9 days after application, read-out: disease control compared to untreated control leaf disks
Outline: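 Preventative leaf-segment test: compound sprayed at 200 ppm onto wheat (cv. Kanzler) segments, brown rust spores applied 1 day after. Kept at 19C and 75% rh under 12 h light/dark cycles; disease control versus untreated check read 7 to 9 days post-application.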

melting point | SMILES | pest or weed control at 100 ppm (Uromyces viciae-fabae) [%] | pest or weed control at 200 ppm [1] [%] | pest or weed control at 200 ppm (Phakopsora pachyrhizi) [%] | inhibition at 20 ppm [2] [%] | pest or weed control at 200 ppm [3] [%]
152.5 to 155.9 °C | CC1CC(NC(=O)c2ccc(-c3noc(C(F)(F)F)n3)cc2F)=NO1 (stereo not drawn) [Compound 1b.15, 2-fluoro-N-(5-methyl-4,5-dihydroisoxazol-3-yl)-4-[5-(trifluoromethyl)-1,2,4-oxadiazol-3-yl]benzamide] | ≥ 80 | ≥ 80 | ≥ 80 | ≥ 80 | ≥ 80
124.2 to 126.2 °C | O=C(NCC1CCOC1)c1ccc(-c2noc(C(F)(F)F)n2)cc1F (stereo not drawn) [Compound 1b.16, 2-fluoro-N-(tetrahydrofuran-3-ylmethyl)4[5(trifluoromethyl)-1,2,4-oxadiazol-3-yl]benzamide] | ≥ 80 | ≥ 80 | ≥ 80 | ≥ 80 | ≥ 80
95.6 to 96.7 °C | O=C(NCC1CCCO1)c1ccc(-c2noc(C(F)(F)F)n2)cc1F (stereo not drawn) [Compound 1b.17, 2-fluoro-N-(tetrahydrofuran-2-ylmethyl)-4-[5-(trifluoromethyl)-1,2,4-oxadiazol-3-yl]benzamide] | ≥ 80 | ≥ 80 | ≥ 80 | ≥ 80 | ≥ 80
134 to 136 °C and 134 to 135.4 °C | O=C(NCC1CCOCC1)c1ccc(-c2noc(C(F)(F)F)n2)cc1F [Compound 1b.18, 2-fluoro-N-(tetrahydropyran-4-ylmethyl)-4-[5-(trifluoromethyl)-1,2,4-oxadiazol-3-yl]benzamide] | ≥ 80 | ≥ 80 | ≥ 80 | ≥ 80 | ≥ 80
113.5 to 114.7 °C | O=C(NCC1CC1)c1ccc(-c2noc(C(F)(F)F)n2)cc1F [Compound 2b.1, N-(cyclopropylmethyl)-2-fluoro-4-[5-(trifluoromethyl)-1,2,4-oxadiazol-3-yl]benzamide] | ≥ 80 | ≥ 80 | ≥ 80 | ≥ 80 | ≥ 80
135 to 136 °C and 135 to 146 °C | C=CCNC(=O)c1ccc(-c2noc(C(F)(F)F)n2)cc1 [Compound 3a.1, N-allyl-4-[5-(trifluoromethyl)-1,2,4-oxadiazol-3-yl]benzamide] | ≥ 80 | ≥ 80 | ≥ 80 | ≥ 80 | ≥ 80
168.5 to 170 °C | C#CCNC(=O)c1ccc(-c2noc(C(F)(F)F)n2)cc1 [Compound 3a.2, N-prop-2-ynyl-4-[5-(trifluoromethyl)-1,2,4-oxadiazol-3-yl]benzamide] | ≥ 80 | ≥ 80 | ≥ 80 | ≥ 80 | ≥ 80
104 to 105.1 °C | CC#CC(C)(C)NC(=O)c1ccc(-c2noc(C(F)(F)F)n2)cc1 [Compound 3a.5, N-(1,1-dimethylbut-2-ynyl)-4-[5-(trifluoromethyl)-1,2,4-oxadiazol-3-yl]benzamide] | ≥ 80 | ≥ 80 | ≥ 80 |  | ≥ 80
130 to 135 °C | CC(C)(CO)NC(=O)c1ccc(-c2noc(C(F)(F)F)n2)cc1 [Compound 3a.17, N-(2-hydroxy-1,1-dimethyl-ethyl)-4-[5-(trifluoromethyl)-1,2,4-oxadiazol-3-yl]benzamide] | ≥ 80 | ≥ 80 |  | ≥ 80 | ≥ 80
118.5 to 119.9 °C | CCCNC(=O)c1ccc(-c2noc(C(F)(F)F)n2)cc1F [Compound 3b.1, 2-fluoro-N-propyl-4-[5-(trifluoromethyl)-1,2,4-oxadiazol-3-yl]benzamide] | ≥ 80 | ≥ 80 | ≥ 80 | ≥ 80 | ≥ 80
125 to 127 °C | CCNC(=O)c1ccc(-c2noc(C(F)(F)F)n2)cc1F [Compound 3b.2, N-ethyl-2-fluoro-4-[5-(trifluoromethyl)-1,2,4-oxadiazol-3-yl]benzamide] | ≥ 80 | ≥ 80 | ≥ 80 | ≥ 80 | ≥ 80
108 to 109.3 °C | C=CCNC(=O)c1ccc(-c2noc(C(F)(F)F)n2)cc1F [Compound 3b.3, N-allyl-2-fluoro-4-[5-(trifluoromethyl)-1,2,4-oxadiazol-3-yl]benzamide] | ≥ 80 | ≥ 80 | ≥ 80 | ≥ 80 | ≥ 80
128.2 to 129.4 °C | C#CCNC(=O)c1ccc(-c2noc(C(F)(F)F)n2)cc1F [Compound 3b.4, 2-fluoro-N-prop-2-ynyl-4-[5-(trifluoromethyl)-1,2,4-oxadiazol-3-yl]benzamide] | ≥ 80 | ≥ 80 | ≥ 80 | ≥ 80 | ≥ 80
146 to 147.7 °C | O=C(NCc1ccccc1)c1ccc(-c2noc(C(F)(F)F)n2)cc1F [Compound 4b.6, N-benzyl-2-fluoro-4-[5-(trifluoromethyl)-1,2,4-oxadiazol-3-yl]benzamide] | ≥ 80 | ≥ 80 | ≥ 80 |  | ≥ 80
128.2 to 129.4 °C | O=C(NCCc1ccc(F)cc1)c1ccc(-c2noc(C(F)(F)F)n2)cc1F [Compound 4b.7, 2-fluoro-N-[2-(4-fluorophenyl)ethyl]-4-[5-(trifluoromethyl)-1,2,4-oxadiazol-3-yl]benzamide] | ≥ 80 |  | ≥ 80 | ≥ 80 | ≥ 80
130 to 131.9 °C | O=C(NCCc1ccccc1)c1ccc(-c2noc(C(F)(F)F)n2)cc1F [Compound 4b.8, 2-fluoro-N-(2-phenylethyl)-4-[5-(trifluoromethyl)-1,2,4-oxadiazol-3-yl]benzamide] | ≥ 80 |  | ≥ 80 | ≥ 80 | ≥ 80
142.7 to 143 °C | O=C(NCc1cccs1)c1ccc(-c2noc(C(F)(F)F)n2)cc1F [Compound 5b.1, 2-fluoro-N-(2-thienylmethyl)-4-[5-(trifluoromethyl)-1,2,4-oxadiazol-3-yl]benzamide] | ≥ 80 | ≥ 80 | ≥ 80 |  | ≥ 80
